Key:
Type in all cases: functional
Candida albicans [1] = test: Antifungal activity against Candida albicans ATCC 10231 at 10 ug/ml by agar cup-plate method; conditions: read-out: IZ
Bacillus subtilis [2] = test: Antibacterial activity against Bacillus subtilis ATCC 6633 at 100 ug/ml by agar cup plate method; conditions: read-out: IZ
Aspergillus niger [3] = test: Antifungal activity against Aspergillus niger ATCC 6275 by agar cup-plate method relative to fluconazole; design: concentration or dose not given beside the values
Escherichia coli [4] = test: Antibacterial activity against Escherichia coli ATCC 25922 by agar cup-plate method relative to penicillin-G; design: concentration or dose not given beside the values
Bacillus subtilis [5] = test: Antibacterial activity against Bacillus subtilis ATCC 6633 at 50 ug/ml by agar cup plate method; conditions: read-out: IZ
Staphylococcus aureus [6] = test: Antibacterial activity against Staphylococcus aureus ATCC 9144 by agar cup-plate method relative to penicillin-G; design: concentration or dose not given beside the values
Escherichia coli [7] = test: Antibacterial activity against Escherichia coli ATCC 25922 at 50 ug/ml by agar cup-plate method; conditions: read-out: IZ
Pseudomonas aeruginosa [8] = test: Antibacterial activity against Pseudomonas aeruginosa ATCC 9027 by agar cup-plate method relative to penicillin-G; design: concentration or dose not given beside the values
Candida albicans [9] = test: Antifungal activity against Candida albicans ATCC 10231 at 20 ug/ml by agar cup-plate method; conditions: read-out: IZ
Escherichia coli [10] = test: Antibacterial activity against Escherichia coli ATCC 25922 at 100 ug/ml by agar cup-plate method; conditions: read-out: IZ
Bacillus subtilis [11] = test: Antibacterial activity against Bacillus subtilis ATCC 6633 by agar cup plate method relative to penicillin-G; design: concentration or dose not given beside the values
Aspergillus niger [12] = test: Antifungal activity against Aspergillus niger ATCC 6275 at 10 ug/ml by agar cup-plate method; conditions: read-out: IZ
Staphylococcus aureus [13] = test: Antibacterial activity against Staphylococcus aureus ATCC 9144 at 100 ug/ml by agar cup-plate method; conditions: read-out: IZ
Candida albicans [14] = test: Antifungal activity against Candida albicans ATCC 10231 by agar cup-plate method relative to fluconazole; design: concentration or dose not given beside the values
Pseudomonas aeruginosa [15] = test: Antibacterial activity against Pseudomonas aeruginosa ATCC 9027 at 100 ug/ml by agar cup-plate method; conditions: read-out: IZ
Pseudomonas aeruginosa [16] = test: Antibacterial activity against Pseudomonas aeruginosa ATCC 9027 at 50 ug/ml by agar cup-plate method; conditions: read-out: IZ
Staphylococcus aureus [17] = test: Antibacterial activity against Staphylococcus aureus ATCC 9144 at 50 ug/ml by agar cup-plate method; conditions: read-out: IZ
Aspergillus niger [18] = test: Antifungal activity against Aspergillus niger ATCC 6275 at 20 ug/ml by agar cup-plate method; conditions: read-out: IZ

Work on `O=c1c2cc(I)ccc2nc(Cc2ccccc2Nc2ccccc2)n1NC1=NNC(c2cccc(O)c2)C1` (stereo not drawn) yielded a zone of inhibition at 10 µg/mL (Candida albicans [1]) of 0 mm, a zone of inhibition at 100 µg/mL (Bacillus subtilis [2]) of 13 mm and an Activity (Aspergillus niger [3]) of 45.04%. The Activity (Escherichia coli [4]) was 34.11%, the zone of inhibition at 50 µg/mL (Bacillus subtilis [5]) was 11 mm and the Activity (Staphylococcus aureus [6]) was 42.34%. The zone of inhibition at 50 µg/mL (Escherichia coli [7]) was 7 mm, the Activity (Pseudomonas aeruginosa [8]) was 39.56% and the zone of inhibition at 20 µg/mL (Candida albicans [9]) was 7 mm. The zone of inhibition at 100 µg/mL (Escherichia coli [10]) was 9 mm, the Activity (Bacillus subtilis [11]) was 47.05% and the zone of inhibition at 10 µg/mL (Aspergillus niger [12]) was 0 mm. For the same compound, the zone of inhibition at 100 µg/mL (Staphylococcus aureus [13]) was 12 mm, the Activity (Candida albicans [14]) was 49.07% and the zone of inhibition at 100 µg/mL (Pseudomonas aeruginosa [15]) was 10 mm. The zone of inhibition at 50 µg/mL (Pseudomonas aeruginosa [16]) was 8 mm, the zone of inhibition at 50 µg/mL (Staphylococcus aureus [17]) was 10 mm and the zone of inhibition at 20 µg/mL (Aspergillus niger [18]) was 7 mm.

Source: ChEMBL document CHEMBL3045169, “In vitro evaluation of the antibacterial and antifungal activity of some new pyrazolyl-quinazolin-4(3H)-one derivatives” (2012)
